Measured values taken from patent publication US20210045385A1, “PYRIDAZINONE-SUBSTITUTED KETOXIMES AS HERBICIDES” (FMC Corporation, priority 2018, published 2021).

Tests used:
Format in all cases: in vivo
[1] = test system: ragweed (common ragweed, Ambrosia elatior); assay: Test A preemergence, visual plant response rating; settings: for Ragweed plant response rating: 125 g ai/ha, preemergence, 0 to 100 scale, 0 no effect, 100 complete control; for Ragweed plant response rating (0 to 100 scale): 500 g ai/ha Preemergence, approx. 10 days
Outline: (§1)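 Greenhouse pot test in loam–sand soil mix: compound in a surfactant-containing non-phytotoxic solvent applied preemergence (directed soil spray) or postemergence (one- to two-leaf plants, 2–10 cm). Injury scored visually after ~10 days, 0–100.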

[2] = test system: Italian ryegrass (Lolium multiflorum); assay: Test A preemergence, visual plant response rating; settings: for Ryegrass, Italian plant response rating: 125 g ai/ha, preemergence, 0 to 100 scale, 0 no effect, 100 complete control; for Ryegrass, Italian plant response rating (0 to 100 scale): 500 g ai/ha Preemergence, approx. 10 days
Outline: as §1

[3] = test system: pigweed (Amaranthus retroflexus); assay: Test A preemergence, visual plant response rating; settings: for Pigweed plant response rating: 125 g ai/ha, preemergence, 0 to 100 scale, 0 no effect, 100 complete control; for Pigweed plant response rating (0 to 100 scale): 500 g ai/ha Preemergence, approx. 10 days
Outline: as §1

[4] = test system: foxtail, giant (giant foxtail, Setaria faberii); assay: Test A preemergence, visual plant response rating; settings: for Foxtail, Giant plant response rating: 125 g ai/ha, preemergence, 0 to 100 scale, 0 no effect, 100 complete control; for Foxtail, Giant plant response rating (0 to 100 scale): 500 g ai/ha Preemergence, approx. 10 days
Outline: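 Ratings 0–100 (100 = complete control), visual, vs untreated controls at ~10 days. Application pre- or postemergence; solvent mixture with surfactant; loam/sand medium.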

[5] = test system: barnyardgrass (Echinochloa crus-galli); assay: Test A preemergence, visual plant response rating; settings: for Barnyardgrass plant response rating: 125 g ai/ha, preemergence, 0 to 100 scale, 0 no effect, 100 complete control; for Barnyardgrass plant response rating (0 to 100 scale): 500 g ai/ha Preemergence, approx. 10 days
Outline: as §1

[6] = test system: kochia (Kochia scoparia); assay: Test A preemergence, visual plant response rating; settings: for Kochia plant response rating: 125 g ai/ha, preemergence, 0 to 100 scale, 0 no effect, 100 complete control; for Kochia plant response rating (0 to 100 scale): 500 g ai/ha Preemergence, approx. 10 days
Outline: as §1

[7] = test system: sedge, umbrella (small-flower umbrella sedge, Cyperus difformis); assay: Test B flooded paddy test, visual plant response rating; settings: 250 g ai/ha, Flood, applied to paddy water, 2-leaf stage, evaluated after 13 to 15 days
Outline: (§2)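 Flooded-pot treatment: water 3 cm over the soil, chemical delivered into that water, depth unchanged for the duration. Assessed by eye versus controls following 13–15 greenhouse days; plants were at 2 leaves when dosed.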

[8] = test system: ducksalad (Heteranhera limosa); assay: as above; settings: 250 g ai/ha, Flood, applied to paddy water, 2-leaf stage, evaluated after 13 to 15 days
Outline: as §2

[9] = test system: rice (Oryza sativa); assay: as above; settings: 250 g ai/ha, Flood, applied to paddy water, 2-leaf stage, evaluated after 13 to 15 days
Outline: as §2

[10] = test system: barnyardgrass (Echinochloa crus-galli); assay: as above; settings: 250 g ai/ha, Flood, applied to paddy water, 2-leaf stage, evaluated after 13 to 15 days
Outline: as §2

[11] = test system: ragweed (common ragweed, Ambrosia elatior); assay: Test A postemergence, visual plant response rating; settings: for Ragweed plant response rating (0 to 100 scale): 500 g ai/ha, postemergence, 0 is no effect, 100 is complete control; for Ragweed plant response rating: Postemergence, 125 g ai/ha, 0 to 100 scale (0 no effect, 100 complete control)
Outline: as §1

[12] = test system: galium (catchweed bedstraw, Galium aparine); assay: Test A postemergence, visual plant response rating; settings: for Galium plant response rating (0 to 100 scale): 500 g ai/ha, postemergence, 0 is no effect, 100 is complete control; for Galium plant response rating: Postemergence, 125 g ai/ha, 0 to 100 scale (0 no effect, 100 complete control)
Outline: as §1

[13] = test system: Italian ryegrass (Lolium multiflorum); assay: Test A postemergence, visual plant response rating; settings: for Ryegrass, Italian plant response rating: 125 g ai/ha, 0 to 100 scale (0 no effect, 100 complete control)
Outline: as §1

[14] = test system: wheat (Triticum aestivum); assay: Test A postemergence, visual plant response rating; settings: for Wheat plant response rating: 0 to 100 scale (0 no effect, 100 complete control)
Outline: as §1

[15] = test system: blackgrass (Alopecurus myosuroides); assay: Test A postemergence, visual plant response rating; settings: for Blackgrass plant response rating (0 to 100 scale): 500 g ai/ha, postemergence, 0 is no effect, 100 is complete control; for Blackgrass plant response rating: Postemergence, 125 g ai/ha, 0 to 100 scale (0 no effect, 100 complete control)
Outline: as §1

[16] = test system: pigweed (Amaranthus retroflexus); assay: Test A postemergence, visual plant response rating; settings: for Pigweed plant response rating (0 to 100 scale): 500 g ai/ha, postemergence, 0 is no effect, 100 is complete control; for Pigweed plant response rating: Postemergence, 125 g ai/ha, 0 to 100 scale (0 no effect, 100 complete control)
Outline: as §1

[17] = test system: foxtail, giant (giant foxtail, Setaria faberii); assay: Test A postemergence, visual plant response rating; settings: for Foxtail, Giant plant response rating (0 to 100 scale): 500 g ai/ha, postemergence, 0 is no effect, 100 is complete control; for Foxtail, Giant plant response rating: Postemergence, 125 g ai/ha, 0 to 100 scale (0 no effect, 100 complete control)
Outline: as §1

[18] = test system: barnyardgrass (Echinochloa crus-galli); assay: Test A postemergence, visual plant response rating; settings: for Barnyardgrass plant response rating (0 to 100 scale): 500 g ai/ha, postemergence, 0 is no effect, 100 is complete control; for Barnyardgrass plant response rating: Postemergence, 125 g ai/ha, 0 to 100 scale (0 no effect, 100 complete control)
Outline: as §1

[19] = test system: corn (Zea mays); assay: Test A postemergence, visual plant response rating; settings: for Corn plant response rating (0 to 100 scale): 500 g ai/ha, postemergence, 0 is no effect, 100 is complete control; for Corn plant response rating: Postemergence, 125 g ai/ha, 0 to 100 scale (0 no effect, 100 complete control)
Outline: as §1

[20] = test system: kochia (Kochia scoparia); assay: Test A postemergence, visual plant response rating; settings: for Kochia plant response rating (0 to 100 scale): 500 g ai/ha, postemergence, 0 is no effect, 100 is complete control; for Kochia plant response rating: Postemergence, 125 g ai/ha, 0 to 100 scale (0 no effect, 100 complete control)
Outline: as §1

[21] = 500 g ai/ha, postemergence, 0 is no effect, 100 is complete control

Row | Compound | Ragweed plant response rating [1] | Ragweed plant response rating (0 to 100 scale) [1] | Ryegrass, Italian plant response rating [2] | Ryegrass, Italian plant response rating (0 to 100 scale) [2] | Pigweed plant response rating [3] | Pigweed plant response rating (0 to 100 scale) [3] | Foxtail, Giant plant response rating [4] | Foxtail, Giant plant response rating (0 to 100 scale) [4] | Barnyardgrass plant response rating [5] | Barnyardgrass plant response rating (0 to 100 scale) [5] | Kochia plant response rating (0 to 100 scale) [6] | Plant response rating, Sedge, Umbrella (0 to 100 scale, 0 is no effect, 100 is complete control) [7] | Plant response rating, Ducksalad (0 to 100 scale, 0 is no effect, 100 is complete control) [8] | Plant response rating, Rice (0 to 100 scale, 0 is no effect, 100 is complete control) [9] | Plant response rating, Barnyardgrass (0 to 100 scale, 0 is no effect, 100 is complete control) [10] | Ragweed plant response rating (0 to 100 scale) [11] | Ragweed plant response rating [11] | Galium plant response rating (0 to 100 scale) [12] | Galium plant response rating [12] | Ryegrass, Italian plant response rating (0 to 100 scale) [13, 21] | further results
1 | CO/N=C(/c1c(O)c(C)nn(C)c1=O)c1ccc(OC)c2ccccc12 [Compound 142] | 0 | 20 | 0 | 20 | 0 | 0 | 10 | 60 | 0 | 50 | 0 | 0 | 0 | 0 | 0 | 30 | 0 | 70 | 50 | 70 | Kochia plant response rating [6]: 0; Ryegrass, Italian plant response rating (0 to 100 scale) ([13]; Postemergence, rate not given, approx. 10 days): 0; Wheat plant response rating ([14]; Postemergence, 500 g ai/ha): 10; Wheat plant response rating (0 to 100 scale) ([14]; Postemergence, approx. 10 days): 0; Blackgrass plant response rating (0 to 100 scale) [15]: 80; Blackgrass plant response rating [15]: 30; Pigweed plant response rating (0 to 100 scale) [16]: 10; Pigweed plant response rating [16]: 10; Foxtail, Giant plant response rating (0 to 100 scale) [17]: 30; Foxtail, Giant plant response rating [17]: 20; Barnyardgrass plant response rating (0 to 100 scale) [18]: 10; Barnyardgrass plant response rating [18]: 10; Corn plant response rating (0 to 100 scale) [19]: 30; Corn plant response rating [19]: 0; Kochia plant response rating (0 to 100 scale) [20]: 30; Kochia plant response rating [20]: 0
2 | CO/N=C(/c1ccccc1F)c1c(O)c(C)nn(C)c1=O [Compound 34] | 20 | 50 | 10 | 60 | 0 | 10 | 0 | 40 | 0 | 0 | 0 | 0 | 0 | 0 | 0 | 50 | 40 | 70 | 40 | 60 | Kochia plant response rating [6]: 0; Ryegrass, Italian plant response rating ([13]; Postemergence): 20; Wheat plant response rating (0 to 100 scale) [14, 21]: 20; Wheat plant response rating ([14]; Postemergence, 125 g ai/ha): 20; Blackgrass plant response rating (0 to 100 scale) [15]: 10; Blackgrass plant response rating [15]: 0; Pigweed plant response rating (0 to 100 scale) [16]: 20; Pigweed plant response rating [16]: 20; Foxtail, Giant plant response rating (0 to 100 scale) [17]: 10; Foxtail, Giant plant response rating [17]: 0; Barnyardgrass plant response rating (0 to 100 scale) [18]: 20; Barnyardgrass plant response rating [18]: 0; Corn plant response rating (0 to 100 scale) [19]: 0; Corn plant response rating [19]: 0; Kochia plant response rating (0 to 100 scale) [20]: 20; Kochia plant response rating [20]: 10
3 | C=CCON=C(c1c(O)c(C)nn(C)c1=O)c1cc(Br)cc2ccccc12 [Compound 115] | 90 | 90 | 80 | 90 | 30 | 90 | 90 | 100 | 90 | 100 | 10 | 85 | 80 | 35 | 75 | 100 | 90 | 100 | 100 | 90 | Ryegrass, Italian plant response rating ([13]; Postemergence): 80; Wheat plant response rating (0 to 100 scale) [14, 21]: 40; Wheat plant response rating ([14]; Postemergence, 125 g ai/ha): 20; Blackgrass plant response rating (0 to 100 scale) [15]: 90; Blackgrass plant response rating [15]: 80; Pigweed plant response rating (0 to 100 scale) [16]: 90; Pigweed plant response rating [16]: 60; Foxtail, Giant plant response rating (0 to 100 scale) [17]: 90; Foxtail, Giant plant response rating [17]: 90; Barnyardgrass plant response rating (0 to 100 scale) [18]: 90; Barnyardgrass plant response rating [18]: 80; Corn plant response rating (0 to 100 scale) [19]: 70; Corn plant response rating [19]: 20; Kochia plant response rating (0 to 100 scale) [20]: 60; Kochia plant response rating [20]: 30
